Among the data in patent US11958831B2, “Pyrazole compounds, pharmaceutical compositions thereof and use thereof” (ARTIVILA (SHENZHEN) INNOVATION CENTER, LTD., priority 2018, dated 2024) are IC50 values, retold here.

One assay deals with IRAK4 kinase (Homo sapiens (Human), UniProt Q9NWZ3). Nature of the assay: IRAK4 kinase activity assay (mobility shift, Km ATP). The assay is classed as biochemical. The conditions noted are these: Km ATP (15.6 μM ATP), 1 nM IRAK4, 60 min room temperature. The method, then: Inhibitory activity (IC50) of the compounds against IRAK4 kinase under Km ATP was detected through mobility spectrum analysis (MSA). IRAK4 kinase was purchased from Carna (Cat. No.: 09-145, batch No.: 14CBS-0020H), and Kinase Substrate 8 was purchased from GL Biochem (Cat. No.: 112396, batch No.: P171207-MJI112396).
The compounds were prepared with DMSO to 100 times the final reaction concentration and diluted to 10 concentrations in sequence at a 3-fold dilution ratio starting from 1 μM. Then 0.25 μL was transferred to a 384-well plate using Echo550. A 1× kinase buffer (50 mM HEPES, pH=7.5, 0.0015% Brij-35, 10 mM MgCl2, 2 mM DTT) was used to prepare a kinase solution of 2.5 times the final concentration. Then 10 μL of the kinase solution of 2.5 times the final concentration was added to each compound well, shaken and mixed uniformly, and incubated at room temperature for 10 min. A 1× kinase buffer was used to prepare a mixed solution of ATP and substrate Kinase Substrate 8 with a concentration of 25/15 times the final concentration. 15 μL of the mixed solution of ATP and the substrate with a concentration of 25/15 times the final concentration were added to each well (the final concentration of IRAK4 kinase was 1 nM, the final concentration of the substrate was 3 μM, and the final concentration of ATP was 15.6 μM), shaken and mixed uniformly, and reacted at room temperature for 60 min. Finally, 30 μL of stopping solution (100 mM HEPES, pH=7.5, 0.0015% Brij-35, 0.2% Coating Reagent #3, 50 mM EDTA) was added to terminate the reaction. CaliperEZ Reader II was used to read data about conversion rates that was then converted into data about inhibition rates. According to the data about the inhibition rate at each concentration, the half maximal inhibitory concentration (IC50) (Table 1) was calculated by a Logit method.

Assay [1] deals with TNFα secretion in THP-1 cells. As to the kind of experiment: Cellular activity assay: LPS-stimulated TNFα secretion in THP-1 cells (ELISA). The assay is classed as cell-based. The conditions noted are these: Homo sapiens, LPS 1 μg/mL, 4.5 h, read-out: IC50 inhibiting TNFα secretion in THP-1 cells stimulated by LPS. As to the method:
Inhibition of IRAK4 by the compounds of the present application was evaluated in THP-1 cells for cellular activity. The stimulus used in this experiment was LPS. LPS is a TLR4 agonist that stimulates the secretion of TNFα through TLR-IRAK4 signaling pathway in the THP-1 cells. Once the signaling pathway is inhibited by IRAK4 inhibitors, the production of TNFα is inhibited. In this experiment, the secretion of TNFα was detected by ELISA.
150 μL of RPMI-1640 medium (Gibco, catalog No.: 11875-085) solution containing 10000 THP-1 cells were added to each well of a 96-well plate and then 25 μL of a test compound solution of 8 times the final concentration (starting from […], 3-fold dilution, 8 concentrations, each concentration containing 4% DMSO RPMI-1640 medium) were added, and they were mixed uniformly and incubated at 37° C. for 30 min. 25 μL of RPMI-1640 medium solution containing LPS were added to each well (the final LPS concentration was 1 μg/mL and the final DMSO concentration was 0.5%), mixed uniformaly, and incubated at 37° C. for 4.5 h. The 96-well plate was rotated at 2000 rpm for 5 min, then 50 μL of supernatant was taken, and the TNFα content in the supernatant was determined with a human ELISA kit (Life Technologies, catalog No.: KHC3011). The IC50 (Table 2) of the compound was calculated by XL-Fit.

Chain of IRAK4 kinase (Q9NWZ3 whole entry): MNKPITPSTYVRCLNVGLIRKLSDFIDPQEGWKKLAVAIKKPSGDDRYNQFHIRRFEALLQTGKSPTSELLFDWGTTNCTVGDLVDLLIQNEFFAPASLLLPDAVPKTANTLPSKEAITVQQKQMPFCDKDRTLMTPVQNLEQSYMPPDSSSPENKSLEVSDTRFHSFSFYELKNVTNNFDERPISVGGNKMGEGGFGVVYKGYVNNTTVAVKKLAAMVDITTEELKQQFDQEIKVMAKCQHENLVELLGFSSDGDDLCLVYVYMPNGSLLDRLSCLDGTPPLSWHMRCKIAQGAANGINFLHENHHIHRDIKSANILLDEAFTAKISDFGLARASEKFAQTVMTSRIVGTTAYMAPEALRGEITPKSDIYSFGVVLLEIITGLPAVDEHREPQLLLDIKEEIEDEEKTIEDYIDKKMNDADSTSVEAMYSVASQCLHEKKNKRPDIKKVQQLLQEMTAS

As for `CC(=O)N1CCC(N2CC(n3cc(NC(=O)c4cccc(-c5cnn(CC(F)F)c5)n4)c(C(F)F)n3)C2)CC1` [Example 1, N-(1-(1-(1-acetylpiperidin-4-yl)azetidin-3-yl)-3-(difluoromethyl)-1H-pyrazol-4-yl)-6-(1-(2,2-difluoroethyl)-1H-pyrazol-4-yl)-2-picolinamide], the half-inhibitory concentration (IC50) at IRAK4 kinase came to 1.2 nM; in assay [1], 29 nM.

For the compound `O=C(Nc1cn(C2CN(C3CCN(C(=O)CO)CC3)C2)nc1C(F)F)c1cccc(-c2cnn(CC(F)F)c2)n1` [Example 2, 6-(1-(2,2-Difluoroethyl)-1H-pyrazol-4-yl)-N-(3-(difluoromethyl)-1-(1-(1-(2-hydroxyacetyl)piperidin-4-yl)azetidin-3-yl)-1H-pyrazol-4-yl)-2-picolinamide], the IC50 on IRAK4 kinase came to 0.99 nM; in assay [1] it was 27 nM.

Take `CC(=O)N1CCC(N2CC(n3cc(NC(=O)c4cccc(-c5cnn(CC(F)(F)F)c5)n4)c(C(F)F)n3)C2)CC1` [Example 3, N-(1-(1-(1-acetylpiperidin-4-yl)azetidin-3-yl)-3-(difluoromethyl)-1H-pyrazol-4-yl)-6-(1-(2,2,2-trifluoroethyl)-1H-pyrazol-4-yl)-2-picolinamide]: the IC50 on IRAK4 kinase is 0.87 nM; in assay [1], 35 nM.

In the case of `O=C(Nc1cn(C2CN(C3CCN(C(=O)CO)CC3)C2)nc1C(F)F)c1cccc(-c2cnn(CC(F)(F)F)c2)n1` [Example 4, N-(3-(difluoromethyl)-1-(1-(1-(2-hydroxyacetyl)piperidin-4-yl)azetidin-3-yl)-1H-pyrazol-4-yl)-6-(1-(2,2,2-trifluoroethyl)-1H-pyrazol-4-yl)-2-picolinamide], the concentration for half-maximal inhibition (IC50) at IRAK4 kinase is 0.68 nM; in assay [1], 33 nM.

Take `CC(=O)N1CCC(N2CC(n3cc(NC(=O)c4cccc(-c5cnn(C(C)(C)C#N)c5)n4)c(C(F)F)n3)C2)CC1` [Example 12, N-(1-(1-(1-acetylpiperidin-4-yl)azetidin-3-yl)-3-(difluoromethyl)-1H-pyrazol-4-yl)-6-(1-(2-cyanopropan-2-yl)-1H-pyrazol-4-yl)-2-picolinamide]: the half-maximal inhibitory concentration (IC50) at IRAK4 kinase amounted to 0.91 nM; in assay [1], 43 nM.

Regarding `CC(=O)N1CCC(N2CC(n3cc(NC(=O)c4cccc(-c5cnn(C(C)(C)CN)c5)n4)c(C(F)F)n3)C2)CC1` [Example 13, N-(1-(1-(1-acetylpiperidin-4-yl)azetidin-3-yl)-3-(difluoromethyl)-1H-pyrazol-4-yl)-6-(1-(1-amino-2-methylpropan-2-yl)-1H-pyrazol-4-yl)-2-picolinamide], the IC50 at IRAK4 kinase turned out to be 0.73 nM; in assay [1], 25 nM.

Take `CC(=O)N1CCC(N2CC(n3cc(NC(=O)c4cccc(-c5cc[nH]n5)n4)c(C(F)F)n3)C2)CC1` [Example 24, N-(1-(1-(1-acetylpiperidin-4-yl)azetidin-3-yl)-3-(difluoromethyl)-1H-pyrazol-4-yl)-6-(1H-pyrazole-3-yl)-2-picolinamide]: the IC50 came to 0.59 nM on IRAK4 kinase and 20 nM in assay [1].

For the compound `O=C(Nc1cn(C2CN(C3CCN(C(=O)CO)CC3)C2)nc1C(F)F)c1cccc(-c2cc[nH]n2)n1` [Example 27, N-(3-(difluoromethyl)-1-(1-(1-(2-hydroxyacetyl)piperidin-4-yl)azetidin-3-yl)-1H-pyrazol-4-yl)-6-(1H-pyrazol-3-yl)-2-picolinamide], the values for the IC50 (on IRAK4 kinase; in assay [1]) were 0.51 nM and 18 nM, respectively.

For the compound `C[C@@H](O)C(=O)N1CCC(N2CC(n3cc(NC(=O)c4cccc(-c5cnn(CC(F)(F)F)c5)n4)c(C(F)F)n3)C2)CC1` [Example 31, (R)—N-(3-(difluoromethyl)-1-(1-(1-(2-hydroxypropionyl)piperidin-4-yl)azetidin-3-yl)-1H-pyrazol-4-yl)-6-(1-(2,2,2-trifluoroethyl)-1H-pyrazol-4-yl)-2-picolinamide], the IC50 on IRAK4 kinase worked out at 0.79 nM; in assay [1], 42 nM.

In the case of `CC(C)(O)C(=O)N1CCC(N2CC(n3cc(NC(=O)c4cccc(-c5cnn(CC(F)(F)F)c5)n4)c(C(F)F)n3)C2)CC1` [Example 32, N-(3-(difluoromethyl)-1-(1-(1-(2-hydroxy-2-methylpropionyl)piperidin-4-yl)azetidin-3-yl)-1H-pyrazol-4-yl)-6-(1-(2,2,2-trifluoroethyl)-1H-pyrazol-4-yl)-2-picolinamide], the results for the IC50 (at IRAK4 kinase; in assay [1]) were 0.97 nM and 52 nM, respectively.

For `C[C@H](O)C(=O)N1CCC(N2CC(n3cc(NC(=O)c4cccc(-c5cnn(CC(F)F)c5)n4)c(C(F)F)n3)C2)CC1` [Example 34, (S)-6-(1-(2,2-difluoroethyl)-1H-pyrazol-4-yl)-N-(3-(difluoromethyl)-1-(1-(1-(2-hydroxypropionyl)piperidin-4-yl)azetidin-3-yl)-1H-pyrazol-4-yl)-2-picolinamide], the half-inhibitory concentration (IC50) on IRAK4 kinase turned out to be 1 nM; in assay [1], 46 nM.

For the compound `C[C@@H](O)C(=O)N1CCC(N2CC(n3cc(NC(=O)c4cccc(-c5cnn(CC(F)F)c5)n4)c(C(F)F)n3)C2)CC1` [Example 35, (R)-6-(1-(2,2-difluoroethyl)-1H-pyrazol-4-yl)-N-(3-(difluoromethyl)-1-(1-(1-(2-hydroxypropionyl)piperidin-4-yl)azetidin-3-yl)-1H-pyrazol-4-yl)-2-picolinamide], the IC50 on IRAK4 kinase is 1.3 nM; in assay [1], 48 nM.

Consider `CC(C)(O)C(=O)N1CCC(N2CC(n3cc(NC(=O)c4cccc(-c5cnn(CC(F)F)c5)n4)c(C(F)F)n3)C2)CC1` [Example 36, 6-(1-(2,2-Difluoroethyl)-1H-pyrazol-4-yl)-N-(3-(difluoromethyl)-1-(1-(1-(2-hydroxy-2-methylpropionyl)piperidin-4-yl)azetidin-3-yl)-1H-pyrazol-4-yl)-2-picolinamide], for which the IC50 turned out to be 0.96 nM on IRAK4 kinase and 50 nM in assay [1].

Take `CS(=O)(=O)N1CCC(N2CC(n3cc(NC(=O)c4cccc(-c5cnn(CC(F)F)c5)n4)c(C(F)F)n3)C2)CC1` [Example 37, 6-(1-(2,2-Difluoroethyl)-1H-pyrazol-4-yl)-N-(3-(difluoromethyl)-1-(1-(1-(methylsulfonyl)piperidin-4-yl)azetidin-3-yl)-1H-pyrazol-4-yl)-2-picolinamide]: the IC50 on IRAK4 kinase is 5.8 nM.

In the case of `CN(C)C(=O)N1CCC(N2CC(n3cc(NC(=O)c4cccc(-c5cnn(CC(F)F)c5)n4)c(C(F)F)n3)C2)CC1` [Example 38, 6-(1-(2,2-Difluoroethyl)-1H-pyrazol-4-yl)-N-(3-(difluoromethyl)-1-(1-(1-(dimethylcarbamoyl)piperidin-4-yl)azetidin-3-yl)-1H-pyrazol-4-yl)-2-picolinamide], on IRAK4 kinase, the half-inhibitory concentration (IC50) stood at 1.5 nM.

Take `C[C@H](O)C(=O)N1CCC(N2CC(n3cc(NC(=O)c4cccc(-c5cc[nH]n5)n4)c(C(F)F)n3)C2)CC1` [Example 39, (S)—N-(3-(difluoromethyl)-1-(1-(1-(2-hydroxypropionyl)piperidin-4-yl)azetidin-3-yl)-1H-pyrazol-4-yl)-6-(1H-pyrazol-3-yl)-2-picolinamide]: on IRAK4 kinase, the IC50 amounted to 0.69 nM.

In the case of `C[C@@H](O)C(=O)N1CCC(N2CC(n3cc(NC(=O)c4cccc(-c5cc[nH]n5)n4)c(C(F)F)n3)C2)CC1` [Example 40, (R)—N-(3-(difluoromethyl)-1-(1-(1-(2-hydroxypropionyl)piperidin-4-yl)azetidin-3-yl)-1H-pyrazol-4-yl)-6-(1H-pyrazol-3-yl)-2-picolinamide], the IC50 was determined as 0.59 nM at IRAK4 kinase and 26 nM in assay [1].

As for `CS(=O)(=O)N1CCC(N2CC(n3cc(NC(=O)c4cccc(-c5cc[nH]n5)n4)c(C(F)F)n3)C2)CC1` [Example 42, N-(3-(difluoromethyl)-1-(1-(1-(methylsulfonyl)piperidin-4-yl)azetidin-3-yl)-1H-pyrazol-4-yl)-6-(1H-pyrazol-3-yl)-2-picolinamide], the IC50 at IRAK4 kinase is 1.2 nM.

As usually defined, the IC50 is the concentration that inhibits the measured activity by half.
